Results: patent publication EP1156056A1, “5-GLYCOSYLOXY-6-HYDROXYNAPHTHO 2,3-f]QUINOLINE-7,12-DIONE HAVING ANTICANCER ACTIVITIES” (ZAIDAN HOJIN BISEIBUTSU KAGAKU KENKYU KAI, priority 1999, dated 2000)
≈ marks a conversion by molar mass, not a printed value. Where two headings read alike, the source gives them in different places.

How the values were obtained:
[1] = test system: human mastocarcinoma (MCF7); assay: Inhibition of proliferation of cancer cells in culture (Test Example 1); type: cell-based; settings: 72 hours cultivation, read-out: Concentration of test compound to inhibit the proliferation of cancer cells by 50 %
Description: (§1) A culture medium for cancer cells was put into test tubes. To the culture medium in each tube, there was transplanted each of such various mouse cancer cells or human cancer cells as shown in Table 1 below. The cells so transplanted were cultivated under the conditions at 37°C in an air atmosphere containing 5 % CO2. To the medium containing the cancer cells so cultivated, there was added said Compounds A, B, D, E or F of this invention at different concentrations, as the test compound. […] As the comparative compound, adriamycin now clinically used was tested to repeat the test in the same way.
(§2) Namely, they are mouse colon cancer (colon 26), mouse B-cell lymphoma (LB32T), mouse lymphoma (L-1210), human cervical cancer (HeLa), human acute promyeloleukemia (HL60), human prostatic cancer (PC3), human pudendal squamous cell carcinoma (A431), human pulmonary carcinoma (PC6), human mastocarcinoma (MCF7), human esophageal carcinoma (TT), human prostatic cancer (LNcap) and human colon cancer (DLD-1).

[2] = test system: human pulmonary carcinoma (PC6); assay: as above; type: cell-based; settings: 72 hours cultivation, read-out: Concentration of test compound to inhibit the proliferation of cancer cells by 50 %
Description: as §1, §2

[3] = test system: human esophageal carcinoma (TT); assay: as above; type: cell-based; settings: 72 hours cultivation, read-out: Concentration of test compound to inhibit the proliferation of cancer cells by 50 %
Description: as §1, §2

[4] = test system: human pudendal squamous cell carcinoma (A431); assay: as above; type: cell-based; settings: A-431, 72 hours cultivation, read-out: Concentration of test compound to inhibit the proliferation of cancer cells by 50 %
Description: as §1, §2

ICR mice = assay: Acute toxicity in mice, survival after intraperitoneal administration (Test Example 2)
Description: In this Test Example, the acute toxicity of Compound A of this invention as administered to mice was evaluated. […] By way of comparison, similar test was carried out with adriamycin (in the form of hydrochloride) .

mouse lymphoma (L-1210) = assay: Inhibition of proliferation of cancer cells in culture (Test Examples 1 and 3); type: cell-based
Description: as §1, §2
(§3) The test method and the nature of cancer cells to be tested are the same as those in Test Example 1 given hereinbefore. In this Test Example 3, however, eight kinds of cancer cells indicated in Table 3 below are used, among the twelve kinds of cancer cells which were used in Test Example 1.
(§4) As the test results of measurement, the evaluated values of the concentration of each test compound which could inhibit the proliferation of cancer cells by 50 % (namely, 50 % inhibitory concentration:IC50, µg/ml) are given in Table 3.

[5] = test system: human acute promyeloleukemia (HL60); assay: as above; type: cell-based
Description: as §1, §2, §3, §4

[6] = test system: mouse colon cancer (colon 26); assay: as above; type: cell-based
Description: as §1, §2, §3, §4

[7] = test system: human colon cancer (DLD-1); assay: as above; type: cell-based; settings: for IC50: Homo sapiens; for anticancer activities against DLD-1, times higher than those of adriamycin: Test Example 1, relative to adriamycin
Description: as §1, §2, §3, §4

[8] = test system: human prostatic cancer (PC3); assay: as above; type: cell-based; settings: for IC50: Homo sapiens; for anticancer activities against PC3, times higher than those of adriamycin: Test Example 1, relative to adriamycin
Description: as §1, §2, §3, §4

[9] = test system: human prostatic cancer (LNcap); assay: as above; type: cell-based
Description: as §1, §2, §3, §4

[10] = test system: mouse B-cell lymphoma (LB32T); assay: as above; type: cell-based
Description: as §1, §2, §3, §4

[11] = test system: human cervical cancer (HeLa); assay: as above; type: cell-based
Description: as §1, §2, §3, §4

[12] = L1210, 72 hours cultivation, Test Example 1, read-out: Concentration of test compound to inhibit the proliferation of cancer cells by 50 %, IC50
[13] = HL-60, 72 hours cultivation, Test Example 1, read-out: Concentration of test compound to inhibit the proliferation of cancer cells by 50 %, IC50
[14] = colon26, 72 hours cultivation, Test Example 1, read-out: Concentration of test compound to inhibit the proliferation of cancer cells by 50 %, IC50
[15] = 72 hours cultivation, Test Example 1, read-out: Concentration of test compound to inhibit the proliferation of cancer cells by 50 %, IC50
[16] = Test Example 3, Compounds N to T used as trifluoroacetate, read-out: IC50
[17] = LNcap, 72 hours cultivation, Test Example 1, read-out: Concentration of test compound to inhibit the proliferation of cancer cells by 50 %, IC50
[18] = ICR, mouse, in vivo, ip, 14 days

SMILES | IC50 [1] | IC50 [2] | IC50 [3] | IC50 [4] | IC50 [5, 13] | IC50 [7, 15] | IC50 [8, 15] | IC50 [9, 17] | IC50 [11, 15] | IC50 (mouse lymphoma (L-1210); [12]) | IC50 [6, 14] | IC50 [10, 15] | anticancer activities against DLD-1, times higher than those of adriamycin [7] | anticancer activities against PC3, times higher than those of adriamycin [8] | other results
COc1cccc2c1C(=O)c1c(O)c3c(c(O)c1C2=O)C[C@@](O)(C(=O)CO)C[C@@H]3O[C@H]1C[C@H](N)[C@H](O)[C@H](C)O1 [Adriamycin, reference compound] | 1.02 µg/mL (≈ 1.88 µM) | 1.01 µg/mL (≈ 1.86 µM) | 1.38 µg/mL (≈ 2.54 µM) | 1.33 µg/mL (≈ 2.45 µM) | 0.03 µg/mL (≈ 0.0552 µM) | 1.9 µg/mL (≈ 3.5 µM) | 0.9 µg/mL (≈ 1.66 µM) | 0.07 µg/mL (≈ 0.129 µM) | 0.06 µg/mL (≈ 0.11 µM) | 0.24 µg/mL (≈ 0.442 µM) | 0.07 µg/mL (≈ 0.129 µM) | 0.03 µg/mL (≈ 0.0552 µM) |  |  | dosage at which the total number of mice survived for 14 days (ICR mice; ICR mice, intraperitoneal, 14 days): 0.125 mg/mouse; Survival day(s) of respective mice (ICR mice; ICR mice, intraperitoneal, dosage 0.125 mg/mouse, 4 mice per group, observed 14 days): >14 (all mice) day(s); IC50 (mouse lymphoma (L-1210); L1210, Test Example 3, Compounds N to T used as trifluoroacetate, read-out: IC50): 0.38 µg/mL (≈ 0.699 µM); IC50 ([5]; HL-60, Test Example 3, Compounds N to T used as trifluoroacetate, read-out: IC50): 0.03 µg/mL (≈ 0.0552 µM); IC50 ([6]; Colon26, Test Example 3, Compounds N to T used as trifluoroacetate, read-out: IC50): 0.09 µg/mL (≈ 0.166 µM); IC50 [7, 16]: 3.4 µg/mL (≈ 6.26 µM); IC50 [8, 16]: 1.14 µg/mL (≈ 2.1 µM); IC50 ([9]; LNCap, Test Example 3, Compounds N to T used as trifluoroacetate, read-out: IC50): 0.1 µg/mL (≈ 0.184 µM); IC50 [10, 16]: 0.04 µg/mL (≈ 0.0736 µM); IC50 [11, 16]: 0.06 µg/mL (≈ 0.11 µM)
C[C@@H]1O[C@@H](Oc2c(O)c3c(c4cccnc24)C(=O)c2ccccc2C3=O)[C@H](F)[C@H](O)[C@@H]1O [Compound A, 5-(2,6-dideoxy-2-fluoro-α-L-talopyranosyloxy)-6-hydroxynaphtho[2,3-f]quinoline-7,12-dione] | 2.23 µg/mL (≈ 5.08 µM) | 4.34 µg/mL (≈ 9.88 µM) | 3.16 µg/mL (≈ 7.19 µM) | 3.36 µg/mL (≈ 7.65 µM) | 0.36 µg/mL (≈ 0.819 µM) | 0.12 µg/mL (≈ 0.273 µM) | 0.16 µg/mL (≈ 0.364 µM) | 0.28 µg/mL (≈ 0.637 µM) | 0.46 µg/mL (≈ 1.05 µM) | 0.59 µg/mL (≈ 1.34 µM) | 0.32 µg/mL (≈ 0.728 µM) | 0.43 µg/mL (≈ 0.979 µM) | 16 times | 5.6 times | Survival day(s) of respective mice (ICR mice; [18]): >14 (all mice) day(s); dosage at which the total number of mice survived for 14 days (ICR mice; [18]): 4 mg/mouse
C[C@@H]1O[C@@H](Oc2c(O)c3c(c4cccnc24)C(=O)c2ccccc2C3=O)[C@@H](F)[C@H](O)[C@@H]1O [Compound D, 5-(2,6-dideoxy-2-fluoro-α-L-galactopyranosyloxy)-6-hydroxynaphtho[2,3-f]quinoline-7,12-dione] | 1.24 µg/mL (≈ 2.82 µM) | 1.06 µg/mL (≈ 2.41 µM) | 1.18 µg/mL (≈ 2.69 µM) | 1.26 µg/mL (≈ 2.87 µM) | 0.35 µg/mL (≈ 0.797 µM) | 0.12 µg/mL (≈ 0.273 µM) | 0.11 µg/mL (≈ 0.25 µM) | 0.31 µg/mL (≈ 0.706 µM) | 0.45 µg/mL (≈ 1.02 µM) | 0.47 µg/mL (≈ 1.07 µM) | 0.2 µg/mL (≈ 0.455 µM) | 0.3 µg/mL (≈ 0.683 µM) | 16 times | 8.2 times | 

Now from value to compound, other results behind:

IC50 [1] | IC50 [2] | IC50 [3] | IC50 [4] | IC50 [5, 13] | IC50 [7, 15] | IC50 [8, 15] | IC50 [9, 17] | IC50 [11, 15] | SMILES | IC50 (mouse lymphoma (L-1210); [12]) | IC50 [6, 14] | IC50 [10, 15] | anticancer activities against DLD-1, times higher than those of adriamycin [7] | anticancer activities against PC3, times higher than those of adriamycin [8] | other results
2.59 µg/mL (≈ 5.74 µM) | 4.15 µg/mL (≈ 9.19 µM) | 3.46 µg/mL (≈ 7.66 µM) | 3.33 µg/mL (≈ 7.38 µM) | 1.51 µg/mL (≈ 3.34 µM) | 1.13 µg/mL (≈ 2.5 µM) | 1.59 µg/mL (≈ 3.52 µM) | 1.54 µg/mL (≈ 3.41 µM) | 1.65 µg/mL (≈ 3.66 µM) | CO[C@H]1[C@H](Oc2c(O)c3c(c4cccnc24)C(=O)c2ccccc2C3=O)O[C@@H](C)[C@@H](O)[C@H]1O [Compound B, 5-(6-deoxy-2-O-methyl-α-L-talopyranosyloxy)-6-hydroxynaphtho[2,3-f]quinoline-7,12-dione] |  |  |  | 1.7 times |  | 
1.26 µg/mL (≈ 2.87 µM) | 1.08 µg/mL (≈ 2.46 µM) | 1.12 µg/mL (≈ 2.55 µM) | 1.11 µg/mL (≈ 2.53 µM) | 0.33 µg/mL (≈ 0.751 µM) | 0.04 µg/mL (≈ 0.091 µM) | 0.08 µg/mL (≈ 0.182 µM) | 0.1 µg/mL (≈ 0.228 µM) | 0.16 µg/mL (≈ 0.364 µM) | C[C@@H]1O[C@H](Oc2c(O)c3c(c4cccnc24)C(=O)c2ccccc2C3=O)[C@@H](F)[C@H](O)[C@@H]1O [Compound E, 5-(2,6-dideoxy-2-fluoro-β-L-galactopyranosyloxy)-6-hydroxynaphtho[2,3-f]quinoline-7,12-dione] | 0.54 µg/mL (≈ 1.23 µM) | 0.23 µg/mL (≈ 0.523 µM) | 0.26 µg/mL (≈ 0.592 µM) |  | 11 times | 
